Reference: patent US20130316958A1 (University of Southern California, priority 2010, published 2013)
Residues, ends and D or L forms follow the SMILES beside them. No end group written: not given here. *: point of attachment. Cbz = O=C(OCc1ccccc1)*; CH2F = FC*

B1: mFADD (protein, UniProt Q61160 1-205, looked up)
FAS-associated death domain …: MDPFLVLLHSLSGSLSGNDLMELKFLCRERVSKRKLERVQSGLDLFTVLLEQNDLERGHTGLLRELLASLRRHDLLQRLDDFEAGTATAAPPGEADLQVAFDIVCDNVGRDWKRLARELKVSEAKMDGIEEKYPRSLSERVRESLKVWKNAEKKNASVAGLVKALRTCRLNLVADLVEEAQESVSKSENMSPVLRDSTVSSSETP

Columns and labels:
Format in all cases: cell-based
[1] = tested on: virus-associated or non-virus-associated lymphoma cells; experiment: Cell-type specificity of vFLIP peptide-induced death; conditions: 30 or 50 μM peptide overnight
Method: The potential cell-type specificity of the activity of the vFLIP peptides was assessed by treating virus-associated or non-virus-associated lymphoma cells with 30 or 50 μM of the K-α2 or the K-α4 peptide overnight and subsequently assessing death levels.

[2] = tested on: KSHV-infected TREX-BCBL-Vector cells; experiment: GFP-LC3 puncta autophagy assessment after peptide treatment; conditions: 30 or 50 μM peptide, 12 hr
Text: (§1) The vFLIP α2 (10 aa) and α4 (12 aa) peptides that independently bound Atg3 at high efficiency were fused with the HIV-1 TAT protein transduction domain for intracellular delivery (Gump and Dowdy (2007) Trends Mol. Med. 13:443-448) and tested for their potential effects on autophagy induction. The K-α2 and K-α4 peptides contained KSHV vFLIP aa20-29 and aa128-139 regions, respectively, as retro-inverso versions to circumvent the proteolytic degradation. Mutant peptides K-α2m and K-α4m were also included, which replaced the hydrophobic core residues of the K-α2 (L21F22L23) and K-α4 (F130L-WVY139) peptides with alanines, as well as the C-α2 and C-α4 peptides containing the cFLIPs regions aa19-28 and aa128-139, respectively. At 12 hr post-transfection with GFP-LC3, KSHV-infected TREX-BCBL-Vector and TREX-BCBL-vFLIP cells were incubated with various concentrations of the peptides or rapamycin for an additional 12 hr, followed by an assessment of the GFP-LC3 puncta and cell death. […] Peptide-treated TREX-BCBL-Vector and TREX-BCBL-vFLIP cells were subjected to immunoblotting with αLC3 and aactin.

[3] = tested on: KSHV-infected BCBL1 cells; experiment: Combinatory treatment with rapamycin and peptide; conditions: 25 nM rapamycin and 20 μM peptide, versus rapamycin or peptide alone
ALL cells = experiment: Tumor cell viability by trypan blue exclusion, ALL cells; conditions: for anticancer activity in ALL cell lines: BV-173 and SUP-B15, FIG. 5
Method: (§2) Tumor cells were treated with peptides at various concentrations for 12 hours and their viability measured by trypan blue exclusion, followed by analyses using the Beckman Coulter Z2 Particle Count and Size Analyzer (BC Z2 CS Analyzer). A minimum of 100 cells per sample using triplicate samples was counted per condition per experiment.

LC3-II in BCBL1 cells = experiment: Immunoblotting with αLC3 of peptide-treated cells; conditions: immunoblot
Text: as §1

[4] = tested on: mTor kinase activity in BCBL1 cells; experiment: Immunoblot of p70S6K and ribosomal protein S6 phosphorylation; conditions: treated BCBL1 cells
Method: Levels of phosphorylation of p70S6K and ribosomal protein S6 in BCBL1 cells were evaluated by immunoblotting with α-p70S6K, aphospho-specific p70S6K, aphospho-specific S6, or αactin.

human Beclin1 = experiment: Beclin1 siRNA knockdown in BCBL1 cells
Method: (§3) All siRNAs were produced by Dharmacon Research. siRNAs specific for human Beclin1 (5′[…]3′) and a nonspecific scrambled control siRNA were transfected using DharmaFect reagent (Dharmacon) according to the manufacturer's instructions. At 48-72 hr post-transfection, cells were analyzed for autophagy. Trypan blue staining and a Beckman Coulter Z2 Particle Count and Size analyzer were used to determine cell death (as a percentage) at day 5.

[5] = tested on: KSHV-infected BCBL1 cells; experiment: Rapamycin- or zVAD-induced growth suppression and autophagic death
Method: (§4) The effect of vFLIP on autophagy was tested in a KSHV-infected BCBL1 cell line. TREX-BCBL-Vector and TREX-BCBL-vFLIP cells were treated with rapamycin or left untreated for 6 days in the presence of doxycycline and subjected to scanning EM, to examine the morphologies of over 100 dead cells and quantify cell death for apoptosis and autophagic death, or subjected to PI staining and cell cycle analysis.
as §3

LNCap cells = experiment: Tumor cell viability, LNCap prostate cancer line
Method: as §2

293T cells = experiment: Tumor cell viability, 293T cells; conditions: FIG. 7B
Method: as §2

[6] = tested on: human T cell lymphoblast-like cells, Jurket T; experiment: Tumor cell viability by trypan blue exclusion, Jurket T; conditions: FIG. 6A
Method: as §2

HCT116 = experiment: Tumor cell viability, HCT116 colon cancer line; conditions: FIG. 7C
Method: as §2

[7] = tested on: human erythromyeloblastoid leukemia cells, K562; experiment: Tumor cell viability by trypan blue exclusion, K562; conditions: FIG. 6B
Method: as §2

TREX-BCBL cells = experiment: vFLIP expression in KSHV-infected BCBL1 cells: autophagy, growth suppression and death; conditions: ectopic expression in BCBL1 cells
Method: To investigate whether vFLIP expression suppresses autophagy in virus-infected cells, a KSHV-infected BCBL1 cell line was constructed (TREX-BCBL) in which a Flag-tagged KSHV-vFLIP gene was integrated into the chromosomal DNA under the control of a tetracycline-inducible promoter. (Nakamura et al. (2003) J. Virol. 77:4205-4220). At 12-16 hr post-transfection with GFP-LC3, TREX-BCBL-Vector and TREX-BCBL-vFLIP cells were treated with Doxycycline for 24 hr, followed by incubation with 2 μM rapamycin for an additional 12 hr. The detection of GFP-LC3 and autophagy levels was performed as described above, vFLIP expression was detected by IB with anti-Flag, and autophagosomes were visualized by scanning EM (scale bar=50 nm). Treatment of these cells with doxycycline strongly activated Flag-vFLIP expression.
as §4, §3

NIH3T3 cells = experiment: TNFα-induced apoptosis by PI staining and flow cytometry; conditions: CHX and TNF-α 12 hr
Text: To determine the effects of the interactions of vFLIP with FADD, IKKαβγ, and 14-3-3σ on anti-autophagy activity, NIH3T3 cells stably expressing various vFLIP mutants were constructed: m14-3-3σ, which lacks 14-3-3σ-binding; mTRAF2, which lacks TRAF2-binding (Guasparri et al. (2006) EMBO Rep. 7:114-119); 67AAA and 58AAA, which have reduced NF-κB activation (Matta and Chaudhary (2004) Proc. Natl. Acad. Sci. USA 101:9399-9404); and mFADD, which lacks FADD-binding (Yang et al. (2005) Mol. Cell. 20:939-949). These cells were treated with either cyclohexamide (CHX) alone or CHX and TNF-α for 12 hr or with 2 μM rapamycin for 3 hr. Propidium iodide (PI) staining and flow cytometry analysis were performed to determine apoptosis levels. Alternatively, NIH3T3 cells containing vector, KSHV vFLIP, or its mutants were transfected with an NF-κB-luciferase reporter construct and a control renilla luciferase plasmid, pRL-SV40 (Promega). At 48 hr post-transfection, luciferase activity was measured with a luminometer using a dual luciferase assay kit (Promega) and normalized with renilla luciferase activity to determine transfection efficiency. GFP-LC3 puncta were detected using an inverted fluorescence microscope and the autophagy levels quantified as means (±SD) of the results from three independent experiments.

Row | Molecule | cell death by lymphoma cell type [1] | autophagy induction (GFP-LC3 puncta) [2] | growth suppression and cell death in combination with rapamycin [3] | anticancer activity in ALL cell lines (ALL cells) | amount of LC3-II (LC3-II in BCBL1 cells) | phosphorylation of p70S6K [4] | phosphorylation of ribosomal protein S6 [4] | further results
1 | RRRQRRKKRGY-G-FVNLLFLVVE (RRRQRRKKRGYGFVNLLFLVVE; not fully specified) [K-α2, HIV-1 TAT-fused retro-inverso peptide containing KSHV vFLIP aa20-29] | primarily targeted KSHV-infected PEL cells (BCBL1, BCP-1, and BC-3), but not KSHV/EBV-coinfected PEL cells (BC-1 and JSC-1), EBV-immortalized Bob-B cells, nor non-virus-associated lymphoma cells (BJAB, K562 and Jurkat-T) | able to induce autophagy in TREX-BCBL-Vector cells as effectively as 2 μM rapamycin | marked increase of growth suppression and cell death | significant anticancer activities | A high amount of LC3-II was detected | marginal reduction | remained unaffected | 
2 | 5′AAGAUCCUGGACCGUGUCACC3′ [Beclin1 siRNA] |  |  |  |  |  |  |  | endogenous Beclin1 expression (human Beclin1): significantly reduced endogenous Beclin1 expression; effect on rapamycin-induced autophagic death (human Beclin1; cell death at day 5): attenuated rapamycin-induced autophagic death
3 | CO[C@H]1C[C@@H]2CC[C@@H](C)[C@@](O)(O2)C(=O)C(=O)N2CCCC[C@H]2C(=O)O[C@H]([C@H](C)C[C@@H]2CC[C@@H](O)[C@H](OC)C2)CC(=O)[C@H](C)/C=C(\C)[C@@H](O)[C@@H](OC)C(=O)[C@H](C)C[C@H](C)/C=C/C=C/C=C/1C [rapamycin] |  |  |  |  |  |  |  | dead cells with features characteristic of autophagic death (EM) ([5]; rapamycin, 6 days, over 100 dead cells examined): approximately 60%
4 | RRRQRRKKRGY-G-NEMCYVWHLFTQ (RRRQRRKKRGYGNEMCYVWHLFTQ; not fully specified) [K-α4, HIV-1 TAT-fused retro-inverso peptide containing KSHV vFLIP aa128-139] | broadly targeted most lymphoma cells, resulting in varying degrees of cell death | able to induce autophagy in TREX-BCBL-Vector cells as effectively as 2 μM rapamycin | marked increase of growth suppression and cell death | significant anticancer activities | A high amount of LC3-II was detected | marginal reduction | remained unaffected | anticancer activity in LNCap cells (LNCap cells; FIG. 7A): anticancer activities; anticancer activity in LNCaP cells (cell count and relative luminescence) (LNCap cells; FIG. 8): confirms the anticancer activities; anticancer activity in 293T cells (293T cells): anticancer activities; cell death in Jurket T [6]: induced cell death; cell death in ALL cells (ALL cells; TAT linked peptide, 30 μM and 50 μM, compared to TAT alone, FIG. 1): induced cell deaths in various ALL cells; anticancer activity in HCT116 (HCT116): anticancer activities; cell death in K562 [7]: induced cell death
5 | COC(=O)CC(NC(=O)C(C)NC(=O)C(NC(=O)OCc1ccccc1)C(C)C)C(=O)CF (stereo not drawn) [zVAD, benzyloxycarbonylvalyl-alanyl-aspartic acid (O-methyl)-fluoro-methylketone] (Cbz-Val-Ala-Asp(OMe)-CH2F; configuration not given here) |  |  |  |  |  |  |  | growth suppression and cell death ([5]; BCBL1 cells): effectively induced growth suppression and death of BCBL1 cells
6 | B1 |  |  |  |  |  |  |  | block of rapamycin- or zVAD-induced growth suppression and autophagic death (TREX-BCBL cells): almost completely blocked; block of TNFα-induced apoptosis (NIH3T3 cells): either poorly blocked TNFα-induced apoptosis or no longer block it at all
